This is an account of results in PubChem BioAssay (NCI).

Assay in all cases: NCI anticancer screen, dose series, 48 h
Experiment [1] concerns SNB-75 CNS.
The test system of experiment [2] is HS 578T breast.
Experiment [3] concerns A498 renal.
The test system of experiment [4] is CCRF-CEM leukemia.
For experiment [5], the system named is SK-MEL-2 melanoma.
Experiment [6] deals with ACHN renal.
Experiment [7] relates to LOX IMVI melanoma.
Experiment [8] deals with A549 NSCLC.
The test system of experiment [9] is HT29 colon.
Experiment [10] has as its system NCI-H23 lung.

Values joined by “and” are separate entries in the source; they are usually repeats but may differ in a detail not shown here. Identical values can stand only once.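 Where inhibition never reached the appropriate level, the endpoint shown equals the highest concentration tested. Otherwise, values were interpolated linearly from a five-concentration, 48-hour dose response in 96-well plates. GI50 = concentration required for 50% inhibition of growth. TGI marks complete inhibition of growth.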

On to `Cc1ccc(-n2c3c(c4c(CN)c(O)ccc42)CCc2ccccc2C3=O)cc1`, for which the GI50 in experiment [1] was 18.9 µM; in experiment [2], 0.456 µM; in [3], 4.17 µM; in experiment [4], 2.66 µM; in [5] it was 12 µM; in [6], 16.7 µM. In addition, the GI50 in experiment [7] is 16.3 µM; in [8], 18.7 µM; in [9], 30.3 µM; in experiment [10] it was 14.1 µM. The TGI in experiment [1] turned out to be 39.3 µM; in experiment [2] it was 5.03 µM; in [3], 16.8 µM; in [4], 8.44 µM; in experiment [5] it was 26.9 µM; in [6], 31.1 µM. Moreover, the TGI was 32.2 µM in experiment [7], 35.8 µM in [8], > 100 µM in experiment [9] and 28.5 µM in [10].
For the compound `Clc1ccc(COC(Cn2ccnc2)c2ccc(Cl)cc2Cl)c(Cl)c1` (configuration not stated), the TGI in [1] is 12.6 µM and 28.8 µM and 16.2 µM; in experiment [2] it was 24 µM and 32 µM; in [3] it was 17.6 µM and 27.3 µM and 19.6 µM; in experiment [4], 21.2 µM and 24.8 µM and 19.8 µM; in experiment [5], 32.6 µM and 28.8 µM; in experiment [6] it was 16.1 µM and 30.1 µM and 24.6 µM. For the same compound, the TGI in [7] was 16.2 µM and 34.3 µM and 24.8 µM; in [8] it was 15.5 µM and 23.8 µM and 23.2 µM; in [9], 15.4 µM and 21.1 µM and 15.5 µM; in experiment [10], 14.6 µM and 25.8 µM and 22.4 µM. Also, the GI50 is 5.49 µM in [2]; 4.55 µM in experiment [4]; 4.51 µM in [6]; 3.51 µM in experiment [7]; 3.87 µM in experiment [8]; 3.55 µM and 7.53 µM and 3.17 µM in experiment [9]. Moreover, the GI50 in experiment [10] was 3.03 µM.
As for `COCC(=O)NC/C=C/c1ccc2ncnc(Nc3ccc(Oc4ccc(C)nc4)c(C)c3)c2c1`, the GI50 is 12.5 µM in experiment [1]; 17.2 µM in experiment [2]; 4.13 µM in experiment [3]; 14 µM in experiment [4]; 18.5 µM in experiment [5]; 3.98 µM in experiment [6]. Moreover, the GI50 is 15 µM in [7], 13.8 µM in experiment [8], 15.5 µM in experiment [9] and 17.4 µM in experiment [10]. Moreover, the TGI was 27.2 µM in experiment [1]; 56.1 µM in [2]; 32.6 µM in experiment [3]; > 79.9 µM in experiment [4]; 41.7 µM in experiment [5]; 69.3 µM in experiment [6]. Moreover, the TGI was 33.8 µM in experiment [7], > 100 µM in [8], 39.4 µM in experiment [9] and 55.4 µM in experiment [10].
On to `CCCc1n(Cc2ccc3ccccc3n2)cc[n+]1Cc1ccc2ccccc2c1`, for which the GI50 in [1] was 0.41 µM; in [2] it was 2.13 µM; in [3], 1.81 µM; in [4] it was 0.688 µM; in experiment [5] it was 1.06 µM; in experiment [6], 4.08 µM. Moreover, the GI50 was 1.07 µM in experiment [7], 1.88 µM in experiment [8], 0.409 µM in experiment [9] and 0.479 µM in [10]. For the same compound, the TGI in [1] amounted to 3.47 µM; in [2], 9.42 µM; in [3], 6.68 µM; in experiment [4] it was 6.1 µM; in experiment [5], 2.85 µM; in experiment [6], 15.6 µM. For the same compound, the TGI in [7] was found to be 2.95 µM; in experiment [8], 11.8 µM; in experiment [9], 2.07 µM; in experiment [10], 10.6 µM.
